Molecules are shown by their SMILES. Where “and” joins values, the source holds several entries; their conditions need not be identical. Equal values may be shown once.

The subject of this test is COR L88 complex tumor spheroid viability. As to the kind of experiment: Anticancer human tumor COR L88 cell line growth inhibition.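 On all read-outs here: compound exposure lasted 7 days before viability readout.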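 On viability, T/C: percent of DMSO vehicle-treated spheroids = 100%.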 Particulars: for viability, T/C: stronger effect = lower value. The essentials: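 Complex tumor spheroids combined malignant cells with endothelial cells and mesenchymal stem cells. DNA-damaging drugs and DNA repair inhibitors were tested alone and in combination, at half-log dilutions down from clinical Cmax (top 10 microM if Cmax unknown), 0.25% DMSO final.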

The mark [1] stands for this setting: curve of first compound, second compound 30 pM.
Where [2] appears, read: curve of first compound, second compound 94.9 pM.
The mark [3] stands for this setting: curve of first compound, second compound 0.0003 µM.
Setting [4] is: curve of first compound, second compound 0.000949 µM.
Where [5] appears, read: curve of first compound, second compound 0.003 µM.
Setting [6] is: second compound 30 pM, first compound 0.0316 µM.
The mark [7] stands for this setting: second compound 30 pM, first compound 0.1 µM.
Setting [8] is: second compound 30 pM, first compound 0.316 µM.
The mark [9] stands for this setting: second compound 30 pM, first compound 1 µM.
Where [10] appears, read: second compound 30 pM, first compound 3.16 µM.
[11] abbreviates: second compound 30 pM, first compound 10 µM.
Setting [12] is: second compound 94.9 pM, first compound 0.0316 µM.
Where [13] appears, read: second compound 94.9 pM, first compound 0.1 µM.
The mark [14] stands for this setting: second compound 94.9 pM, first compound 0.316 µM.
Where [15] appears, read: second compound 94.9 pM, first compound 1 µM.
The mark [16] stands for this setting: second compound 94.9 pM, first compound 3.16 µM.
Where [17] appears, read: second compound 94.9 pM, first compound 10 µM.
Setting [18] is: second compound 0.0003 µM, first compound 0.0316 µM.
Setting [19] is: second compound 0.0003 µM, first compound 0.1 µM.
The mark [20] stands for this setting: second compound 0.0003 µM, first compound 0.316 µM.
Where [21] appears, read: second compound 0.0003 µM, first compound 1 µM.
Where [22] appears, read: second compound 0.0003 µM, first compound 3.16 µM.
Where [23] appears, read: second compound 0.0003 µM, first compound 10 µM.
The mark [24] stands for this setting: second compound 0.000949 µM, first compound 0.0316 µM.
Setting [25] is: second compound 0.000949 µM, first compound 0.1 µM.
[26] abbreviates: second compound 0.000949 µM, first compound 0.316 µM.
Where [27] appears, read: second compound 0.000949 µM, first compound 1 µM.
The mark [28] stands for this setting: second compound 0.000949 µM, first compound 3.16 µM.
[29] abbreviates: second compound 0.000949 µM, first compound 10 µM.
Setting [30] is: second compound 0.003 µM, first compound 0.0316 µM.
Setting [31] is: second compound 0.003 µM, first compound 0.1 µM.
[32] abbreviates: second compound 0.003 µM, first compound 0.316 µM.
Setting [33] is: second compound 0.003 µM, first compound 1 µM.
Setting [34] is: second compound 0.003 µM, first compound 3.16 µM.
Where [35] appears, read: second compound 0.003 µM, first compound 10 µM.

In the case of `[2H]c1nc(C)nc([2H])c1-c1cc(NC[C@@H](C)c2cccc3c(C(=O)NC)ccnc23)ncn1` + COc1cc2c(cc1O)CCNC21CSC2c3c(OC(C)=O)c(C)c4c(c3C(COC1=O)N1C(O)C3Cc5cc(C)c(OC)c(O)c5C(C21)N3C)OCO4, the IC50 – broadly, the point on the concentration scale where inhibition reaches its midpoint – is over 10 µM under setting [1]; over 10 µM under setting [2]; over 10 µM under setting [3]; 4.45 µM under setting [4]; under 0.0316 µM under setting [5]. The viability, T/C (commonly the ratio of treated to control) under setting [6] was 98.3%; the viability, T/C under setting [7] is 98.8%; the viability, T/C under setting [8] was 96.3%; the viability, T/C under setting [9] was 105%; the viability, T/C under setting [10] is 102%; the viability, T/C under setting [11] was 98.3%. Also, the viability, T/C by setting is: under setting [12], 102%; under setting [13], 100%; under setting [14], 110%; under setting [15], 101%; under setting [16], 94.6%; under setting [17], 88%. Also, the viability, T/C runs as follows: under setting [18], 72.8%; under setting [19], 68.8%; under setting [20], 66.9%; under setting [21], 73.3%; under setting [22], 73.4%; under setting [23], 69.6%. Further, the viability, T/C reads like this: under setting [24], 59%; under setting [25], 58.7%; under setting [26], 55.9%; under setting [27], 57.4%; under setting [28], 50.7%; under setting [29], 45.8%. Also, the viability, T/C was 0.64% under setting [30]; 0.73% under setting [31]; 0.53% under setting [32]; 0.45% under setting [33]; 0.55% under setting [34]; 1.03% under setting [35].
Turning to `COc1ccc([C@@H](O)c2cc(-c3ncnc4cc(N5CCOCC5)ccc34)c(F)cc2Cl)nn1`, the viability, T/C by setting is: (compound 0.0316 µM) 108% and 105% and 101%; (compound 0.1 µM) 98.8% and 102% and 98.1%; (compound 0.316 µM) 103% and 93.9% and 104%; (compound 1 µM) 76.1% and 83% and 81.6%; (compound 3.16 µM) 56% and 64.4% and 54.8%; (compound 10 µM) 33.7% and 39% and 36.1%. Also, where the note is “curve of compound”, the concentration for half-maximal inhibition (IC50) was 4.01 µM and 6.1 µM.
Regarding `O=C(c1cc(Cc2n[nH]c(=O)c3ccccc23)ccc1F)N1CCN(C(=O)C2CC2)CC1`, the viability, T/C was 97.2% and 87.7% and 107% (compound 0.0949 µM); 98.2% and 101% and 103% (compound 0.3 µM); 101% and 97.9% and 94.2% (compound 0.949 µM); 85.7% and 87.9% and 90.7% (compound 3 µM); 61.5% and 67.3% and 70.3% (compound 9.49 µM); 49.8% and 50.5% and 58.2% (compound 30 µM). Also, the IC50 (curve of compound) is over 30 µM.
Turning to `Cc1cc(C)c(CNC(=O)c2cc(-c3ccc(CN4CCOCC4)cc3)cc3c2cnn3C2CCCC2)c(=O)[nH]1` + COc1cc2c(cc1O)CCNC21CSC2c3c(OC(C)=O)c(C)c4c(c3C(COC1=O)N1C(O)C3Cc5cc(C)c(OC)c(O)c5C(C21)N3C)OCO4, the IC50 was over 10 µM under setting [1]; over 10 µM under setting [2]; 2.46 µM under setting [3]; under 0.0316 µM under setting [4]; under 0.0316 µM under setting [5]. Further, the viability, T/C reads like this: under setting [6], 107%; under setting [7], 93.7%; under setting [8], 102%; under setting [9], 85.3%; under setting [10], 73.8%; under setting [11], 60.2%. Also, the viability, T/C runs as follows: under setting [12], 98.4%; under setting [13], 107%; under setting [14], 104%; under setting [15], 86.9%; under setting [16], 79.2%; under setting [17], 51.1%. In addition, the viability, T/C runs as follows: under setting [18], 63.8%; under setting [19], 67.3%; under setting [20], 62.6%; under setting [21], 50.4%; under setting [22], 48.7%; under setting [23], 42.2%. For the same molecule, the viability, T/C is 49.3% under setting [24]; 43.8% under setting [25]; 39.7% under setting [26]; 43.1% under setting [27]; 35.2% under setting [28]; 10.1% under setting [29]. In addition, the viability, T/C runs as follows: under setting [30], 1.12%; under setting [31], 1.08%; under setting [32], 0.94%; under setting [33], 1.18%; under setting [34], 0.93%; under setting [35], 0.96%.
Regarding `COc1cc(C)[nH]c(=O)c1CN1CCc2c(Cl)cc(C(OC)C3COC3)c(Cl)c2C1=O` (centres undefined) + Cn1nnc2c(C(N)=O)ncn2c1=O, the IC50 was over 10 µM (curve of first compound, second compound 1 µM); over 10 µM (curve of first compound, second compound 3.16 µM); 0.549 µM (curve of first compound, second compound 10 µM); 0.111 µM (curve of first compound, second compound 31.6 µM); under 0.0316 µM (curve of first compound, second compound 100 µM). Also, the viability, T/C (second compound 1 µM, first compound 0.0316 µM) was 76.1%; the viability, T/C (second compound 1 µM, first compound 0.1 µM) was 75%; the viability, T/C (second compound 1 µM, first compound 0.316 µM) is 71.3%; the viability, T/C (second compound 1 µM, first compound 1 µM) is 65.9%; the viability, T/C (second compound 1 µM, first compound 3.16 µM) is 67.5%; the viability, T/C (second compound 1 µM, first compound 10 µM) was 66.6%. Also, the viability, T/C (second compound 3.16 µM, first compound 0.0316 µM) was 74%; the viability, T/C (second compound 3.16 µM, first compound 0.1 µM) is 74.8%; the viability, T/C (second compound 3.16 µM, first compound 0.316 µM) was 63.4%; the viability, T/C (second compound 3.16 µM, first compound 1 µM) was 71.6%; the viability, T/C (second compound 3.16 µM, first compound 3.16 µM) was 69.7%; the viability, T/C (second compound 3.16 µM, first compound 10 µM) was 68.7%. Also, the viability, T/C by setting is: (second compound 10 µM, first compound 0.0316 µM) 62.7%; (second compound 10 µM, first compound 0.1 µM) 57.4%; (second compound 10 µM, first compound 0.316 µM) 48.8%; (second compound 10 µM, first compound 1 µM) 50.3%; (second compound 10 µM, first compound 3.16 µM) 46.6%; (second compound 10 µM, first compound 10 µM) 43.2%. In addition, the viability, T/C is 55.5% (second compound 31.6 µM, first compound 0.0316 µM); 51.5% (second compound 31.6 µM, first compound 0.1 µM); 39.7% (second compound 31.6 µM, first compound 0.316 µM); 37% (second compound 31.6 µM, first compound 1 µM); 33.3% (second compound 31.6 µM, first compound 3.16 µM); 33.6% (second compound 31.6 µM, first compound 10 µM). Also, the viability, T/C by setting is: (second compound 100 µM, first compound 0.0316 µM) 49%; (second compound 100 µM, first compound 0.1 µM) 43.5%; (second compound 100 µM, first compound 0.316 µM) 37.2%; (second compound 100 µM, first compound 1 µM) 35.3%; (second compound 100 µM, first compound 3.16 µM) 33.3%; (second compound 100 µM, first compound 10 µM) 31.6%.

The record behind these values is PubChem BioAssay AID1845201 (Molecular Pharmacology Branch, DTP, NCI, 2023).
